Values of other authors, collected in publication PMC11579209, “Population pharmacokinetics and exposure–response relationships of maribavir in transplant recipients with cytomegalovirus infection” (Journal of Pharmacokinetics and Pharmacodynamics, 2024).

Assays:
[1] = parameters: method as in PMID 12654667, doi:10.1016/j.bbmt.2018.12.600; settings: metabolite of maribavir; cited from earlier work
CMV = system: CMV; parameters: method as in PMID 34674258; settings: through Week 24 or Week 14; cited from earlier work

| SMILES | Pharmacological activity of metabolite [1] | Exposure dependency of clinically significant CMV infection (CS-CMVi) (CMV) |
| --- | --- | --- |
| Nc1nc2cc(Cl)c(Cl)cc2n1[C@H]1O[C@@H](CO)[C@H](O)[C@@H]1O [VP44469] | pharmacologically inactive |  |
| COc1cccc(N2CCN(C3=Nc4c(F)cccc4[C@H](CC(=O)O)N3c3cc(C(F)(F)F)ccc3OC)CC2)c1 [letermovir] |  | no significant exposure dependencies |
